System: NSAID-induced gastric ulcers
Experiment: NSAID-Induced Ulcers in the Sprague-Dawley Rat (gastric ulcer assay)
Type: in vivo
Design: Inhibition of Gastric Ulcers: unit not given here
Excerpt: When a selected NSAID, for example, indomethacin, is combined with cyclo-(N-methyl-Ala-Tyr-D-Trp-Lys-Val-Phe) according to the present invention, the following results are obtained from the well-established gastric ulcer assay in the Sprague-Dawley male rat is described below:
Protocol: NSAID-Induced Ulcers in the Sprague-Dawley Rat
Twenty-four (24) hour fasted, male, Sprague-Dawley rats, 130 to 150 gms. each, are randomized into groups for assay. The animals are housed to wire-bottom cages without bedding and allowed free-access to water throughout the fasting and experimental periods. Ulcers are then induced by the peroral administration of NSAID at dose levels predetermined to provoke a similar number of ulcers within 4 hours of additional fasting*. Each NSAID is prepared in 0.5% methyl cellulose vehicle and given at a volume of 10 ml/kg rounded to the nearest 0.1 ml. Either 0.5% methylcellulose vehicle or compound A is co-administered perorally with the NSAID bringing the total volume to 20 ml/kg rounded to the nearest 0.2 ml.
*For example: Indomethacin-20 mg/kg; Naproxen-50 mg/kg; Ibuprofen-100 mg/kg; Diclofenac-75 mg/kg.
Four (4) hours after the administration of NSAID+vehicle, or NSAID+compound A, the animals are sacrificed by CO2 inhalation, the stomachs removed, excised along the inner curvature, washed carefully with cool tap water and placed in 0.9% saline. When all groups have been processed, the mucosal region of the stomachs are examined under a magnifying lens and scored according to the total number of lesions present. Group scores represent the mean score of animals in that group. P values are determined by Student's "t" test, comparing the ulcer scores of individual rats given NSAID+compound A to those dosed with NSAID+vehicle only.

[1] = Compound A 0.01 mg/kg p.o. co-administered with Diclofenac 75 mg/kg p.o., 4 h
[2] = Compound A 0.01 mg/kg p.o. co-administered with Ibuprofen 100 mg/kg p.o., 4 h
[3] = Compound A 0.01 mg/kg p.o. co-administered with Indomethacin 20 mg/kg p.o., 4 h
[4] = Compound A 0.01 mg/kg p.o. co-administered with Naproxen 50 mg/kg p.o., 4 h
[5] = Compound A 0.1 mg/kg p.o. co-administered with Diclofenac 75 mg/kg p.o., 4 h
[6] = Compound A 0.1 mg/kg p.o. co-administered with Ibuprofen 100 mg/kg p.o., 4 h
[7] = Compound A 0.1 mg/kg p.o. co-administered with Indomethacin 20 mg/kg p.o., 4 h
[8] = Compound A 0.1 mg/kg p.o. co-administered with Naproxen 50 mg/kg p.o., 4 h
[9] = Compound A 1.0 mg/kg p.o. co-administered with Diclofenac 75 mg/kg p.o., 4 h
[10] = Compound A 1.0 mg/kg p.o. co-administered with Ibuprofen 100 mg/kg p.o., 4 h
[11] = Compound A 1.0 mg/kg p.o. co-administered with Indomethacin 20 mg/kg p.o., 4 h
[12] = Compound A 1.0 mg/kg p.o. co-administered with Naproxen 50 mg/kg p.o., 4 h

O=C(O)Cc1ccccc1Nc1c(Cl)cccc1Cl [Diclofenac, diclofenac, reference compound]
Inhibition of Gastric Ulcers (Diclofenac 75 mg/kg p.o. + vehicle (control), 4 h): 0 | No. of Gastric Ulcers M ± S.E.M. (Diclofenac 75 mg/kg p.o. + vehicle (control), fasted male rats, 4 h after dosing): 14.0 ± 1.6

CC(C)Cc1ccc(C(C)C(=O)O)cc1 (stereo not drawn) [Ibuprofen, ibuprofen, reference compound]
Inhibition of Gastric Ulcers (Ibuprofen 100 mg/kg p.o. + vehicle (control), 4 h): 0

COc1ccc2c(c1)c(CC(=O)O)c(C)n2C(=O)c1ccc(Cl)cc1 [Indomethacin, indomethacin, reference compound]
Inhibition of Gastric Ulcers (Indomethacin 20 mg/kg p.o. + vehicle (control), 4 h): 0 | No. of Gastric Ulcers M ± S.E.M. (Indomethacin 20 mg/kg p.o. + vehicle (control), fasted male rats, 4 h after dosing): 18.1 ± 1.6

COc1ccc2cc([C@H](C)C(=O)O)ccc2c1 [Naproxen, naproxen, reference compound]
Inhibition of Gastric Ulcers (Naproxen 50 mg/kg p.o. + vehicle (control), 4 h): 0

cyclo-(N-methyl-Ala-Tyr-D-Trp-Lys-Val-Phe) [Compound A]
Inhibition of Gastric Ulcers [1]: 0 | No. of Gastric Ulcers M ± S.E.M. [1]: 18.7 ± 2.0 | Inhibition of Gastric Ulcers [2]: 36.4 | No. of Gastric Ulcers M ± S.E.M. [2]: 8.2 ± 1.0 | Inhibition of Gastric Ulcers [3]: 0 | No. of Gastric Ulcers M ± S.E.M. [3]: 18.6 ± 4.4 | Inhibition of Gastric Ulcers [4]: 0 | No. of Gastric Ulcers M ± S.E.M. [4]: 14.0 ± 3.0 | Inhibition of Gastric Ulcers [5]: 47.9 | No. of Gastric Ulcers M ± S.E.M. [5]: 7.3 ± 2.3 | Inhibition of Gastric Ulcers [6]: 87.6 | No. of Gastric Ulcers M ± S.E.M. [6]: 1.6 ± 0.6 | Inhibition of Gastric Ulcers [7]: 50.3 | No. of Gastric Ulcers M ± S.E.M. [7]: 9.0 ± 1.9 | Inhibition of Gastric Ulcers [8]: 67.7 | No. of Gastric Ulcers M ± S.E.M. [8]: 5.0 ± 2.5 | Inhibition of Gastric Ulcers [9]: 99.3 | No. of Gastric Ulcers M ± S.E.M. [9]: 0.1 ± 0.1 | Inhibition of Gastric Ulcers [10]: 92.3 | No. of Gastric Ulcers M ± S.E.M. [10]: 1.0 ± 0.5 | Inhibition of Gastric Ulcers [11]: 83.4 | No. of Gastric Ulcers M ± S.E.M. [11]: 3.0 ± 1.3 | Inhibition of Gastric Ulcers [12]: 83.9 | No. of Gastric Ulcers M ± S.E.M. [12]: 2.5 ± 1.4

Reference: patent US4474766A, “Anti-inflammatory/analgesic combination of cyclo-(N-methyl-Ala-Tyr-D-Trp-Lys-Val-Phe) and a selected non-steroidal anti-inflammatory drug (NSAID)” (Merck & Co., Inc., priority 1983, dated 1984)
